The text below walks through data of US10758609B2, “Cross-reactive T-cell epitopes of HIV, SIV, and FIV for vaccines in humans and cats” (priority 2015, dated 2020).

Residues, ends and D or L forms follow the SMILES beside them.

Data set [1] has as its system CD8^+ T cells from HIV^+ subjects. The data set can be described thus: FACS-based intracellular staining (ICS) for cytolysin (perforin) and cytotoxins (GrzA, GrzB) in CD8+ T cells. To be noted: HIV-1 epitope peptide; HIV+ human subjects; threshold ≥0.2%. The procedure:
(§1) The overlapping peptide pools of FIV and HIV-1 structural and enzyme proteins were used to stimulate the […] (PBMC) and the T cells from HIV^+ subjects as previously described for epitope mapping of HIV-1 and FIV p24 and reverse transcriptase (RT) (Sanou et al., 2013; Roff et al., 2015). The individual peptides in those peptide pools with positive responses to either interferon-γ (IFNγ) production and/or T-cell proliferation were determined with IFNγ ELISpot analysis and CFSE-based CD3^+CD4^+ and CD3^+CD8^+ T-cell proliferation analyses followed by the FACS-based intracellular staining (ICS) for cytolysin (perforin) and cytotoxin (granzyme A [GrzA] and GrzB) (Sanou et al., 2013; Roff et al., 2015). Besides viral p24 and RT proteins, the identical approach was used to identify anti-HIV/FIV T-cell epitopes on viral matrix (MA), nucleocapsid (NC), protease (PR), RNAase, integrase (IN), surface envelope (SU Env), and transmembrane envelope (TM Env) (FIG. 12).
(§2) Since our goal is to develop HIV vaccine for human use, the HIV peptides (Table 10) counterpart of the cross-reactive FIV peptides shown in Table 9 were tested with PBMC and T cells from HIV^+ subjects. The immune functions analyzed were human IFNγ production by ELISpot, cytolysin/cytotoxin production by ICS, and CFSE-based proliferation of CD3^+CD4^+ and CD3^+CD8^+ T cells from HIV^+ subjects (Table 10, the first set of results). In addition, the Los Alamos National Laboratories (LANL) database was used to identify the HLA allele(s) of the HIV epitope sequence with CTL activity that can exist within the sequence of the conserved counterpart HIV peptide (Table 9, LANL CTL). The bold HLA class-I supertypes and the bold 2-digit alleles are those on the “Optimal CD8^+ CTL Epitopes” list and those without bold are alleles for potential CTL epitope. […] The HLA class II such as HLA-DRB1 has yet to be fully classified into supertypes, and therefore the 4-digit resolution nomenclatures for the HLA-DRB1 alleles are shown.
The threshold for positive IFNγ and IL2 ELISpot responses is ≥50 spot-forming units (SFU) per 10^6 PBMC. The threshold for CFSE-based CD4^+ and CD8^+ T-cell proliferation is ≥2% CD4^+ T-cell CFSE^low or CD8^+ T-cell CFSE^low. The threshold of FACS-based intracellular cytokine staining (ICS) is ≥0.2%. […] The nine FIV peptides in black were used in the current MAP vaccine trial, whereas the 13 peptides in blue were not used. […] The MAPs and their corresponding peptide(s) were also tested for their ability to enhance or suppress in vitro FIV infection of feline PBMC (E/S of peptides and E/S of MAP).
(§3) The counterpart HIV-1 peptides of the FIV peptides were also tested for immunogenicity using PBMC and T cells from HIV^+ human subjects. […] The HRT7-1 and HRT7-2 were also tested with cells from HIV^+ subjects on ART. The threshold for positive IFNγ ELISpot response is ≥75 spot-forming units (SFU) per 10^6 PBMC. The threshold for CFSE-based CD4^+ (CD4^+ T) and CD8^+ (CD8^+ T) T-cell proliferation is ≥2% CD4^+ T-cell CFSE^low or CD8^+ T-cell CFSE^low. The threshold of intracellular cytokine staining (ICS) of FACS-based cytolysin (perforin) and cytotoxins (granzymes A and B) in CD4^+ T cells (CyCD4) and CD8^+ T cells (CyCD8) is ≥0.2%. […] The nine HIV-1 peptides in black are the counterpart FIV peptides used in the current MAP vaccine trial, whereas the 13 peptides in blue were not.

Data set [2] deals with CD4^+ T cells from HIV^+ subjects. The settings on record: HIV+ human subjects; for CyCD4: CD4+ T-cell cytolysin/cytotoxins (perforin, GrzA & B), frequency of responders: HIV-1 epitope peptide, threshold ≥0.2%; for CyCD4 (cytolysin and cytotoxin production of CD4+ T cells), frequency of responders: HIV-1 peptides. As to the method:
as §1, §2, §3

In the case of `CC[C@H](C)[C@H](NC(=O)[C@H](CC(=O)O)NC(=O)[C@@H](NC(=O)[C@H](C)NC(=O)[C@@H](NC(=O)[C@@H](NC(=O)[C@H](CC(=O)O)NC(=O)[C@@H](NC(=O)[C@@H](NC(=O)[C@H](CCCNC(=N)N)NC(=O)[C@H](CCC(=O)O)NC(=O)CN)[C@@H](C)CC)C(C)C)[C@@H](C)CC)[C@@H](C)CC)[C@@H](C)O)C(=O)N[C@@H](CCC(N)=O)C(=O)N[C@H](C(=O)N[C@@H](CCCCN)C(=O)O)[C@@H](C)O` [HIN7-1] (H-GERIVDIIATDIQTK-OH; N-terminus and C-terminus assumed), the “CyCD8: CD8+ T-cell cytolysin/cytotoxins (perforin, GrzA & B), frequency of responders” value (“CyCD8: CD8+ T-cell cytolysin/cytotoxins” below) in data set [1] is reported as “+ (12.5%-25% (+))”. For the same compound, in data set [2], the “CyCD4: CD4+ T-cell cytolysin/cytotoxins (perforin, GrzA & B), frequency of responders” value (“CyCD4: CD4+ T-cell cytolysin/cytotoxins” for short) was “− (0%-1.4% (−))”; the “CyCD4 (cytolysin and cytotoxin production of CD4+ T cells), frequency of responders” value is on record as “— (0%-1.4%(—))”.

As to `CC(C)[C@H](NC(=O)CNC(=O)[C@H](CO)NC(=O)[C@H](CCCNC(=N)N)NC(=O)[C@H](Cc1ccccc1)NC(=O)[C@H](CO)NC(=O)[C@H](CCC(=O)O)NC(=O)[C@H](CCC(=O)O)NC(=O)[C@@H]1CCCN1C(=O)[C@@H]1CCCN1C(=O)[C@H](C)NC(=O)[C@@H](N)[C@@H](C)O)C(=O)N[C@@H](CCC(=O)O)C(=O)N[C@H](C(=O)N[C@H](C(=O)N[C@H](C(=O)O)[C@@H](C)O)[C@@H](C)O)[C@@H](C)O` [HNC2] (H-TAPPEESFRSGVETTT-OH; N-terminus and C-terminus assumed), the “CyCD8: CD8+ T-cell cytolysin/cytotoxins” value in data set [1] is reported as “+ (12.5%-25% (+))”. In data set [2], the “CyCD4: CD4+ T-cell cytolysin/cytotoxins” value was “− (0%-1.4% (−))”.

With `CC(C)C[C@H](NC(=O)[C@H](C)NC(=O)[C@@H](N)CCC(=O)O)C(=O)N[C@@H](CC(C)C)C(=O)N[C@@H](CC(=O)O)C(=O)N[C@H](C(=O)NCC(=O)N[C@@H](C)C(=O)N[C@@H](CC(=O)O)C(=O)N[C@@H](CC(=O)O)C(=O)N[C@H](C(=O)N[C@H](C(=O)N[C@@H](CC(C)C)C(=O)N[C@@H](CCC(=O)O)C(=O)O)C(C)C)[C@@H](C)O)[C@@H](C)O` [HPR2] (H-EALLDTGADDTVLE-OH; N-terminus and C-terminus assumed), in data set [1], the “CyCD8: CD8+ T-cell cytolysin/cytotoxins” value is “− (0%-1.4% (−))”. Further, the “CyCD4: CD4+ T-cell cytolysin/cytotoxins” value in data set [2] is “− (0%-1.4% (−))”.

`CC(C)C[C@H](NC(=O)[C@H](CCC(=O)O)NC(=O)[C@H](CCCNC(=N)N)NC(=O)[C@H](Cc1ccccc1)NC(=O)[C@H](CC(=O)O)NC(=O)[C@@H](NC(=O)[C@H](CC(C)C)NC(=O)[C@H](CCCCN)NC(=O)[C@H](CCCNC(=N)N)NC(=O)[C@@H](N)Cc1c[nH]c2ccccc12)C(C)C)C(=O)N[C@@H](CC(N)=O)C(=O)N[C@@H](CCCCN)C(=O)N[C@@H](CCCNC(=N)N)C(=O)O` [HRT3-4]: the “CyCD8: CD8+ T-cell cytolysin/cytotoxins” value in data set [1] is listed as “++++ (>54% (++++))”. In addition, in data set [2], the “CyCD4: CD4+ T-cell cytolysin/cytotoxins” value is reported as “++++ (>54% (++++))”; the “CyCD4 (cytolysin and cytotoxin production of CD4+ T cells), frequency of responders” value is on record as “++++ (>54% (++++))”.

Take `CC[C@H](C)[C@H](NC(=O)CN)C(=O)N[C@@H](CCCNC(=N)N)C(=O)N[C@@H](Cc1ccc(O)cc1)C(=O)N[C@@H](CCC(N)=O)C(=O)N[C@@H](Cc1ccc(O)cc1)C(=O)N[C@@H](CC(N)=O)C(=O)N[C@H](C(=O)N[C@@H](CC(C)C)C(=O)N1CCC[C@H]1C(=O)N[C@@H](CCC(N)=O)C(=O)NCC(=O)N[C@@H](Cc1c[nH]c2ccccc12)C(=O)N[C@@H](CCCCN)C(=O)NCC(=O)O)C(C)C` [HRT7-1]: the “CyCD8: CD8+ T-cell cytolysin/cytotoxins” value in data set [1] is “− (0%-1.4% (−))”. Besides, the “CyCD4: CD4+ T-cell cytolysin/cytotoxins” value in data set [2] was “− (0%-1.4% (−))”.

Take `CC[C@H](C)[C@H](NC(=O)[C@H](C)NC(=O)[C@@H]1CCCN1C(=O)[C@H](CO)NC(=O)CNC(=O)[C@H](CCCCN)NC(=O)[C@H](Cc1c[nH]c2ccccc12)NC(=O)CNC(=O)[C@H](CCC(N)=O)NC(=O)[C@@H]1CCCN1C(=O)[C@H](CC(C)C)NC(=O)[C@@H](NC(=O)[C@@H](N)CC(N)=O)C(C)C)C(=O)N[C@@H](Cc1ccccc1)C(=O)O` [HRT7-2]: the “CyCD8: CD8+ T-cell cytolysin/cytotoxins” value in data set [1] is on record as “− (0%-1.4% (−))”. The “CyCD4: CD4+ T-cell cytolysin/cytotoxins” value in data set [2] is “− (0%-1.4% (−))”.

Turning to `CC[C@H](C)[C@H](NC(=O)[C@H](CCCCN)NC(=O)[C@@H](NC(=O)[C@@H](NC(=O)[C@H](CCCCN)NC(=O)[C@H](Cc1ccc(O)cc1)NC(=O)[C@H](CCCCN)NC(=O)[C@H](Cc1ccc(O)cc1)NC(=O)[C@H](CC(C)C)NC(=O)[C@H](CCC(=O)O)NC(=O)[C@H](CO)NC(=O)[C@H](CCCNC(=N)N)NC(=O)[C@H](Cc1c[nH]c2ccccc12)NC(=O)[C@H](CC(N)=O)NC(=O)[C@@H](N)CC(=O)O)C(C)C)C(C)C)C(=O)O` [HSU4] (H-DNWRSELYKYKVVKI-OH; N-terminus and C-terminus assumed), the “CyCD8: CD8+ T-cell cytolysin/cytotoxins” value in data set [1] was “+ (12.5%-25% (+))”. In data set [2], the “CyCD4: CD4+ T-cell cytolysin/cytotoxins” value is listed as “− (0%-1.4% (−))”.

Consider `CC[C@H](C)[C@H](NC(=O)CNC(=O)[C@H](CC(C)C)NC(=O)[C@H](CC(C)C)NC(=O)[C@H](CCC(N)=O)NC(=O)[C@H](CCC(N)=O)NC(=O)[C@H](CC(=O)O)NC(=O)[C@H](CCCCN)NC(=O)[C@H](CC(C)C)NC(=O)[C@@H](N)Cc1ccc(O)cc1)C(=O)N[C@@H](Cc1c[nH]c2ccccc12)C(=O)NCC(=O)N[C@@H](CS)C(=O)O` [HTM4-3] (H-YLKDQQLLGIWGC-OH; N-terminus and C-terminus assumed), for which, in data set [1], the “CyCD8: CD8+ T-cell cytolysin/cytotoxins” value is “+ (12.5%-25% (+))”. Further, the “CyCD4: CD4+ T-cell cytolysin/cytotoxins” value in data set [2] was “− (0%-1.4% (−))”.

With `CC[C@H](C)[C@H](NC(=O)[C@H](CCCNC(=N)N)NC(=O)[C@@H](N)CC(C)C)C(=O)N[C@H](C(=O)N[C@@H](Cc1ccccc1)C(=O)N[C@@H](C)C(=O)N[C@H](C(=O)N[C@@H](CC(C)C)C(=O)N[C@@H](CO)C(=O)N[C@H](C(=O)N[C@H](C(=O)N[C@@H](CC(N)=O)C(=O)N[C@@H](CCCNC(=N)N)C(=O)N[C@H](C(=O)N[C@@H](CCCNC(=N)N)C(=O)N[C@@H](CCC(N)=O)C(=O)O)C(C)C)C(C)C)[C@@H](C)CC)C(C)C)C(C)C` [HTM8(20)] (H-LRIVFAVLSIVNRVRQ-OH; N-terminus and C-terminus assumed), the “CyCD8: CD8+ T-cell cytolysin/cytotoxins” value in data set [1] was “− (0%-1.4% (−))”. In addition, the “CyCD4: CD4+ T-cell cytolysin/cytotoxins” value in data set [2] is given as “− (0%-1.4% (−))”.

In the case of `CSCC[C@H](NC(=O)[C@H](Cc1c[nH]c2ccccc12)NC(=O)[C@H](CC(N)=O)NC(=O)[C@H](CCCCN)NC(=O)[C@@H](NC(=O)[C@H](CCC(=O)O)NC(=O)[C@H](CCC(N)=O)NC(=O)[C@H](CO)NC(=O)[C@H](C)N)C(C)C)C(=O)N[C@H](C(=O)N[C@@H](CCC(=O)O)C(=O)N[C@H](C(=O)N[C@@H](CC(C)C)C(=O)N[C@@H](CC(C)C)C(=O)N[C@H](C(=O)O)C(C)C)[C@@H](C)O)[C@@H](C)O` [Hp14-2(15-2)] (H-ASQEVKNWMTETLLV-OH; N-terminus and C-terminus assumed), the “CyCD4 (cytolysin and cytotoxin production of CD4+ T cells), frequency of responders” value in data set [2] is “++++ (>54% (++++))”.

As to `CSCC[C@H](NC(=O)[C@H](Cc1c[nH]c2ccccc12)NC(=O)[C@H](CC(N)=O)NC(=O)[C@H](CCCCN)NC(=O)[C@@H](N)C(C)C)C(=O)N[C@H](C(=O)N[C@@H](CCC(=O)O)C(=O)N[C@H](C(=O)N[C@@H](CC(C)C)C(=O)N[C@@H](CC(C)C)C(=O)N[C@H](C(=O)N[C@@H](CCC(N)=O)C(=O)N[C@@H](CC(N)=O)C(=O)N[C@@H](C)C(=O)N[C@@H](CC(N)=O)C(=O)O)C(C)C)[C@@H](C)O)[C@@H](C)O` [Hp14-3(15-3)] (H-VKNWMTETLLVQNAN-OH; N-terminus and C-terminus assumed), the “CyCD4 (cytolysin and cytotoxin production of CD4+ T cells), frequency of responders” value in data set [2] was “++++ (>54% (++++))”.
